These results are taken from patent US20100278940A1, “Calcium supplements” (HL DISTRIBUTION COMPANY, priority 2005, published 2010).

Series [1] deals with Human fetal osteoblast cells (hFOB 1.19). The series can be described thus: Alkaline phosphatase (ALP) activity in osteoblast cells. Format: cell-based. To be noted: 4 days; AC 0.5 mg/ml, 0.15 mg/ml calcium from carbonate or citrate; mean±SEM. Here is the method:
(§1) These alterations in temperature were required because hFOB 1.19 cells were conditionally immortalized with a gene encoding a temperature-sensitive mutant (tsA58) of SV40 large T antigen.
(§2) AC was dissolved in HCl:H2O mixture at the ratio of 13:2. Calcium carbonate and calcium citrate were dissolved in distilled water. The stock solution of vitamin D3 was dissolved in ethyl alcohol as per the manufacturer's instructions and directly added in the medium to achieve its final concentration. […] The amount of calcium present in 0.5 mg of AC is 0.15 mg. […] Finally, the pH was maintained same in all the preparations.
(§3) Data were expressed as the mean±SEM of 3-6 independent experiments. Statistical comparisons of the results were made using one way analysis of variance (ANOVA). Significant differences (p≦0.05) between the means of control and test group were analyzed by the Neuman-Keuls multiple comparison test.

The subject of series [2] is osteoblastic hFOB 1.19 cells. Kind of series: MDA assay (H2O2-induced oxidative stress, lipid peroxidation). The format is cell-based, human. To be noted: 24 h. As for the experimental part:
as §1, §2
After 24 h of treatment with compounds in the presence and absence of H2O2 (0.3 mM), the cells were washed with cold PBS, scraped, and homogenized in lysis buffer. […] of cell lysate was used for measuring the MDA levels by following the manufacturer's instructions. […] In this study, MDA standard was used to construct a standard curve.
as §3

The subject of series [3] is Human fetal osteoblast cells (hFOB 1.19). The series can be described thus: DNA synthesis assay ([3H] thymidine incorporation). Format: cell-based. Conditions: 4 days treatment, without vitamin D3; mean±SEM. As for the experimental part:
as §1, §2, §3

Series [4] shares this test system. The series can be described thus: Mineralization/calcium deposition assay (Alizarin Red S). Format: cell-based. Conditions: 2 days treatment, without vitamin D3; mean±SEM. Here is the method: as §1, §2, §3
Series [5] has the same test system. The series can be described thus: Immunocytochemistry for proliferating cell nuclear antigen (PCNA) expression. Format: cell-based. Conditions: 4 days treatment, without vitamin D3. As for the experimental part: Human fetal osteoblast cells (hFOB 1.19-ATCC number: CRL-11372) were seeded at a density of 10,000 cells cm^−2 in a mixture of Dulbecco's modified eagle medium (DMEM) and Ham F12 medium (1:1 ratio) supplemented with 10% fetal bovine serum (FBS) and 0.3 mg/ml […]. Osteoblast cells were cultured in a humidified atmosphere of 5% CO2 at 33.5° C. for cell attachment and proliferation and at 39.5° C. for other assays. These alterations in temperature were required because hFOB 1.19 cells were conditionally immortalized with a gene encoding a temperature-sensitive mutant (tsA58) of SV40 large T antigen.
AC was dissolved in HCl:H2O mixture at the ratio of 13:2. Calcium carbonate and calcium citrate were dissolved in distilled water. The stock solution of vitamin D3 was dissolved in ethyl alcohol as per the manufacturer's instructions and directly added in the medium to achieve its final concentration. […] The same dose was used for further experiments in the present study. The amount of calcium present in 0.5 mg of AC is 0.15 mg. […] Finally, the pH was maintained same in all the preparations.
To evaluate proliferative activity, immunohistochemistry for PCNA was performed after 4 days treatment of AC, calcium carbonate and calcium citrate. The experiment was done by following the instructions of PCNA staining kit (Invitrogen). […]

[6] abbreviates: in presence of 0.3 mM H2O2, mean±SEM.

For `O=C([O-])[O-].[Ca+2]` [calcium carbonate, Calcium carbonate], the ALP activity in series [1] was determined as 372.2±15.7 nmol/mg protein. Besides, the MDA levels in series [2] (setting [6]) was determined as 1.263 ± 0.062 µM. For the same molecule, the “[3H] thymidine incorporation counts (DNA synthesis)” value in series [3] is on record as 62.8±11.6 cpm. Further, in series [4], the “calcium deposition (mineralization)” value stood at 0.1810±0.0115 OD at 561 nm.
On to `O=C([O-])CC(O)(CC(=O)[O-])C(=O)[O-].O=C([O-])CC(O)(CC(=O)[O-])C(=O)[O-].[Ca+2].[Ca+2].[Ca+2]` [calcium citrate], for which, in series [1], the ALP activity stood at 302.1±47.8 nmol/mg protein. In addition, the MDA levels in series [2] (setting [6]) was determined as 1.289 ± 0.109 µM. Further, in series [3], the “[3H] thymidine incorporation counts (DNA synthesis)” value was found to be 45±9.9 cpm. Further, the “calcium deposition (mineralization)” value in series [4] is given as 0.1267±0.0054 OD at 561 nm. Further, the “expression of PCNA” value in series [5] is “considerably higher than the control and calcium carbonate-treated cells”.
On to `OO` [Example H2O2, H2O2], for which the MDA levels in series [2] (0.3 mM H2O2 alone, control 0.6768±0.084) was 1.992 ± 0.116 µM.
